Data as given in patent US8222218B2, “Cyclopropanated carbohydrates” (Seton Hall University, priority 2008, dated 2012).
Read-outs that look alike come from different tables or passages of the source.

How the values were obtained:
Type in all cases: in vivo
MES-induced seizures = assay: Maximal Electroshock Seizure (MES) test, mice; conditions: mice, i.p.; for responders at 30 mg/kg / responders at 100 mg/kg / responders at 300 mg/kg: Mus musculus, ip
Excerpt: The MES test is a model for generalized tonic-clonic seizures. The seizures are highly reproducible and electrophysiologically consistent with human seizures. The test provides information about a compound's ability to prevent the spread of seizure when all neuronal circuits of the brain are maximally active. 60 Hz of alternating current (50 mA in mice, 150 mA in rats) is applied for 2 seconds via corneal electrodes that have been treated with an electrolyte solution containing an anesthetic (0.5% tetracaine HCl). Mice are tested at a variety of intervals after an i.p. injection of […] solution of the test compound (commonly in a 0.5% solution of methylcellulose) at 30, 100, and 300 mg/kg doses. Rats are examined after a 30 mg/kg (per os, p.o.) dose that is applied in a volume of 0.04 mL/g. An animal is considered “protected” from MES-induced seizures upon removal of the hind limb extensor component of the seizure.
(§1) Male and female albino CF1 mice (18-25 g, Charles River, Portage, Mich.) and male albino Sprague-Dawley rats (275-300 g, kindling test; 100-150 g all other tests; Charles River, Raleigh, N.C.) were used as experimental animals.

[1] = tested on: metrazole-induced clonic seizures; assay: Subcutaneous Metrazole Seizure Threshold Test (scMET), mice; conditions: mice; for responders at 30 mg/kg / responders at 100 mg/kg / responders at 300 mg/kg: Mus musculus, sc
Description: The subcutaneous injection of metrazole, which is a convulsant, produces clonic seizures in laboratory animals. The scMET test is designed to identify compounds that raise the seizure threshold of an animal. Mice are pretreated with test compound at 30, 100, and 300 mg/kg doses in a similar manner to the MES test. Rats are treated with a 50 mg/kg dose (p.o.). At the previously determined TPE of the test compound, the dose of metrazole that will induce convulsions in 97% of animals (CD97: 85 mg/kg mice) is injected into the loose fold of the skin in the midline of the neck. The animals are placed in isolation cages to minimize stress and observed for the next 30 minutes for the presence or absence of seizures. An episode of clonic spasms (approximately 3-5 seconds) of the fore and/or hindlimbs, jaws or vibrissae is taken as the endpoint.
as §1

[2] = Acute toxicity, minimal motor impairment (rotorod), mice; conditions: mice, rotorod; for TOX 30 0.5 h (animals toxic/tested) / TOX 30 4 h (animals toxic/tested): 30 mg/kg; for TOX 100 0.5 h (animals toxic/tested) / TOX 100 4 h (animals toxic/tested): 100 mg/kg; for TOX 300 0.5 h (animals toxic/tested) / TOX 300 4 h (animals toxic/tested): 300 mg/kg
Description: Toxicity was measured using the minimal motor impairment test described below.
Animals are monitored for overt signs of impaired neurological or muscular function to assess a compound's toxicity. In mice, the rotorod procedure is used to disclose minimal muscular or neurological impairment. When a mouse is placed on a rotating rod (6 rpm), the animal can maintain its equilibrium for long periods of time. The animal is considered toxic if it falls off the rotating rod three times during a 1 minute period. In rats, minimal motor deficit is indicated by ataxia, which is manifested by an abnormal, uncoordinated gait.

[3] = 30 mg/kg, 0.5 h, read-out: MES 30 0.5 h (animals protected/tested)
[4] = 30 mg/kg, 4 h, read-out: MES 30 4 h (animals protected/tested)
[5] = 100 mg/kg, 0.5 h, read-out: MES 100 0.5 h (animals protected/tested)
[6] = 100 mg/kg, 4 h, read-out: MES 100 4 h (animals protected/tested)
[7] = 300 mg/kg, 0.5 h, read-out: MES 300 0.5 h (animals protected/tested)
[8] = 300 mg/kg, 4 h, read-out: MES 300 4 h (animals protected/tested)
[9] = 30 mg/kg, 0.4 h, read-out: scMET 30 0.4 h (animals protected/tested)
[10] = 30 mg/kg, 0.5 h, read-out: scMET 30 0.5 h (animals protected/tested)
[11] = 100 mg/kg, 0.4 h, read-out: scMET 100 0.4 h (animals protected/tested)
[12] = 100 mg/kg, 0.5 h, read-out: scMET 100 0.5 h (animals protected/tested)
[13] = 300 mg/kg, 0.4 h, read-out: scMET 300 0.4 h (animals protected/tested)
[14] = 300 mg/kg, 0.5 h, read-out: scMET 300 0.5 h (animals protected/tested)

Row | Structure (SMILES) | responders at 30 mg/kg (MES-induced seizures; [3]) [%] | responders at 30 mg/kg (MES-induced seizures; [4]) [%] | responders at 100 mg/kg (MES-induced seizures; [5]) [%] | responders at 100 mg/kg (MES-induced seizures; [6]) [%] | responders at 300 mg/kg (MES-induced seizures; [7]) [%] | responders at 300 mg/kg (MES-induced seizures; [8]) [%] | responders at 30 mg/kg [1, 9] [%] | responders at 30 mg/kg [1, 10] [%] | responders at 100 mg/kg [1, 11] [%] | responders at 100 mg/kg [1, 12] [%] | responders at 300 mg/kg [1, 13] [%] | responders at 300 mg/kg [1, 14] [%] | TOX 30 0.5 h (animals toxic/tested) [2] | TOX 30 4 h (animals toxic/tested) [2] | TOX 100 0.5 h (animals toxic/tested) [2] | TOX 100 4 h (animals toxic/tested) [2] | TOX 300 0.5 h (animals toxic/tested) [2] | TOX 300 4 h (animals toxic/tested) [2] | also measured
1 | COC(=O)C1[C@@H]2[C@@H](O)[C@@H]3OC(C)(C)OC[C@H]3O[C@H]12 (stereo partly drawn) [Compound 10, Methyl (4aR,5aS,6aR,7R,7aS)-7-hydroxy-2,2-dimethylhexahydro-4H-cyclopropa[5,6]pyrano[3,2-d][1,3]dioxine-6-carboxylate] | 0 | 0 | 0 | 0 | 0 | 0 | 0 | 0 | 0 | 0 | 0 | 0 | 0/4 | 0/2 | 0/8 | 0/4 | 0/4 | 0/2 | –
2 | COC(=O)[C@H]1C2O[C@@H]3CO[Si](C(C)(C)C)(C(C)(C)C)O[C@@H]3[C@H](O)[C@@H]21 (stereo partly drawn) [Compound 14b, (1R,1as,2R,2aR,6aR)-4,4-di-tert-butyl-2-hydroxy-hexahydro-3,5,7-trioxa-4-silacyclopropa[b]naphthalene-1-carboxylic acid (S)-methyl ester] | – | – | – | – | – | – | – | – | – | – | – | – | 0/4 | 0/2 | 2/8 | 0/4 | 4/4 | 0/2 | MES 30 0.5 h (animals protected/tested) (MES-induced seizures; 30 mg/kg, 0.5 h): 0/1; MES 30 4 h (animals protected/tested) (MES-induced seizures; 30 mg/kg, 4 h): 0/1; MES 100 0.5 h (animals protected/tested) (MES-induced seizures; 100 mg/kg, 0.5 h): 0/3; MES 100 4 h (animals protected/tested) (MES-induced seizures; 100 mg/kg, 4 h): 0/3; MES 300 0.5 h (animals protected/tested) (MES-induced seizures; 300 mg/kg, 0.5 h): 0/1; MES 300 4 h (animals protected/tested) (MES-induced seizures; 300 mg/kg, 4 h): 0/1; scMET 30 0.4 h (animals protected/tested) ([1]; 30 mg/kg, 0.4 h): 0/1; scMET 30 0.5 h (animals protected/tested) ([1]; 30 mg/kg, 0.5 h): 0/1; scMET 100 0.4 h (animals protected/tested) ([1]; 100 mg/kg, 0.4 h): 0/1; scMET 100 0.5 h (animals protected/tested) ([1]; 100 mg/kg, 0.5 h): 0/1; scMET 300 0.4 h (animals protected/tested) ([1]; 300 mg/kg, 0.4 h): 0/1; scMET 300 0.5 h (animals protected/tested) ([1]; 300 mg/kg, 0.5 h): 0/1
3 | CCOC(=O)C1[C@@H]2[C@@H](OS(=O)(=O)N(C)C)[C@@H]3O[C@H](c4ccc(OC)cc4)OC[C@H]3O[C@H]12 (stereo partly drawn) [Compound 17a, Ethyl (2R,4aR,5aS,6aS,7R,7aR)-7-[(dimethylsulfamoyl)oxy]-2-(4-methoxyphenyl)hexahydro-4H-cyclopropa[5,6]pyrano[3,2-d][1,3]dioxine-6-carboxylate] | 0 | 0 | 0 | 0 | 0 | 0 | 0 | 0 | 0 | 0 | 0 | 0 | 0/4 | 0/2 | 0/8 | 0/4 | 0/4 | 0/2 | –
